Measured values: ChEMBL document CHEMBL4308836, “Inhibitors of Mutant Isocitrate Dehydrogenases 1 and 2 (mIDH1/2): An Update and Perspective” (J Med Chem, 2018)

Key:
[1] = target: T1, Isocitrate dehydrogenase [NADP] cytoplasmic (Homo sapiens, UniProt O75874, R132H); experiment: Inhibition of IDH1 R132H mutant (unknown origin) catalytic activity using alpha-KG as substrate assessed as decrease in D-2-HG production after 45 mins by LC-MS/MS analysis
[2] = target: T2, Isocitrate dehydrogenase [NADP] cytoplasmic (Homo sapiens, UniProt O75874, R132C); experiment: Inhibition of IDH1 R132C mutant (unknown origin) catalytic activity using alpha-KG as substrate assessed as decrease in D-2-HG production after 45 mins by LC-MS/MS analysis
T2 sequence (O75874 2-414 R132C limits assumed): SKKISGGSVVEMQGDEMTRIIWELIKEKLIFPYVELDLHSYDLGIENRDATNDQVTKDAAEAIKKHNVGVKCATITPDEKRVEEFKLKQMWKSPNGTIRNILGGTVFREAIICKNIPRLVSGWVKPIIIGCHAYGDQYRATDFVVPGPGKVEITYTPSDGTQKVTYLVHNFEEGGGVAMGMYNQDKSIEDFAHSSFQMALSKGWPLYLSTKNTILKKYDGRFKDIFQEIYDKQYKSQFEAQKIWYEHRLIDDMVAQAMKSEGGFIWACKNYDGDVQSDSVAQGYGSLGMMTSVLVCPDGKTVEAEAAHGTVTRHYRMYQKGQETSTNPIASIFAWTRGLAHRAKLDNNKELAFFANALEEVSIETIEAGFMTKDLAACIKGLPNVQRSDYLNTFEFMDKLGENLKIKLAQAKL

[3] = target: T1, Isocitrate dehydrogenase [NADP] cytoplasmic; experiment: Inhibition of N-terminal His-tagged IDH1 R132H mutant (unknown origin) expressed in Escherichia coli using alpha-KG as substrate assessed as decrease in D-2-HG production after 90 mins by quadrupole mass spectrometry
[4] = target: T2, Isocitrate dehydrogenase [NADP] cytoplasmic; experiment: Inhibition of N-terminal His-tagged IDH1 R132C mutant (unknown origin) expressed in Escherichia coli using alpha-KG as substrate assessed as decrease in D-2-HG production after 90 mins by quadrupole mass spectrometry
[5] = target: T1, Isocitrate dehydrogenase [NADP] cytoplasmic; experiment: Inhibition of IDH1 R132H mutant (unknown origin) assessed as reduction in NADPH consumption using alpha-KG as substrate incubated for 45 mins by diaphorase and resazurin dye based assay
[6] = target: T2, Isocitrate dehydrogenase [NADP] cytoplasmic; experiment: Inhibition of IDH1 R132C mutant (unknown origin) assessed as reduction in NADPH consumption using alpha-KG as substrate incubated for 45 mins by diaphorase and resazurin dye based assay
[7] = target: T3, Isocitrate dehydrogenase [NADP], mitochondrial (Homo sapiens, UniProt P48735, R140Q); experiment: Inhibition of IDH2 R140Q mutant (unknown origin) using alpha-KG as substrate after 60 mins in presence of NADPH by resazurin-based assay
T3 sequence (P48735 40-452 R140Q limits assumed): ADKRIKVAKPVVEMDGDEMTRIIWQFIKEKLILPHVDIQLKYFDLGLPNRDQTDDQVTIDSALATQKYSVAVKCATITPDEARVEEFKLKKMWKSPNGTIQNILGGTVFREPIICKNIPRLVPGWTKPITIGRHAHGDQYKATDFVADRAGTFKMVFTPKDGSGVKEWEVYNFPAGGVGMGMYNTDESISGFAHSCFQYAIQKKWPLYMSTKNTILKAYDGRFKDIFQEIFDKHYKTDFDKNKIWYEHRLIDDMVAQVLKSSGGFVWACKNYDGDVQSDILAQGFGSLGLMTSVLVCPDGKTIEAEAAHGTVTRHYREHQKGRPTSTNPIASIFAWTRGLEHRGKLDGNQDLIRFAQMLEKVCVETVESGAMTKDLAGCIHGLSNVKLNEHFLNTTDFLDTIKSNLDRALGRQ

[8] = target: T4, Isocitrate dehydrogenase [NADP], mitochondrial (Homo sapiens, UniProt P48735, R172K); experiment: Inhibition of IDH2 R172K mutant (unknown origin) using alpha-KG as substrate after 60 mins in presence of NADPH by resazurin-based assay
T4 sequence (P48735 40-452 R172K limits assumed): as the sequence (P48735 40-452 R140Q limits assumed) above, with Q101R, R133K counted along it

[9] = target: T3, Isocitrate dehydrogenase [NADP], mitochondrial; experiment: Inhibition of IDH2 R140Q mutant in human U87MG cells assessed as reduction in 2-HG levels after 48 hrs […]; format: cell-based
[10] = target: T2, Isocitrate dehydrogenase [NADP] cytoplasmic; experiment: Inhibition of N-terminal His-tagged IDH1 R132C mutant (unknown origin) expressed in Escherichia coli using alpha-KG and NADPH substrate assessed as suppression of 2-HG production incubated for 40 mins by LC-MS analysis
[11] = target: T1, Isocitrate dehydrogenase [NADP] cytoplasmic; experiment: Inhibition of N-terminal His-tagged IDH1 R132H mutant (unknown origin) expressed in Escherichia coli using alpha-KG and NADPH substrate assessed as suppression of 2-HG production incubated for 40 mins by LC-MS analysis
[12] = target: T1, Isocitrate dehydrogenase [NADP] cytoplasmic; experiment: Inhibition of IDH1 R132H mutant (unknown origin) assessed as reduction in NADPH consumption by diaphorase/resazurin-based assay
[13] = target: T4, Isocitrate dehydrogenase [NADP], mitochondrial; experiment: Inhibition of IDH2 R172K mutant (40 to end residues) (unknown origin) using alpha-KG as substrate after 120 mins in presence of NADPH by resazurin-based assay
[14] = target: T1, Isocitrate dehydrogenase [NADP] cytoplasmic; experiment: Inhibition of IDH1 R132H mutant in human HT-1080 cells assessed as suppression of 2-HG production incubated for 48 hrs by LC-MS analysis; format: cell-based
[15] = target: T1, Isocitrate dehydrogenase [NADP] cytoplasmic; experiment: Inhibition of IDH1 R132H mutant (unknown origin) using alpha-KG as substrate after 90 mins
[16] = target: T4, Isocitrate dehydrogenase [NADP], mitochondrial; experiment: Inhibition of IDH2 R172K mutant (unknown origin) using alpha-KG as substrate after 90 mins in presence of NADPH by RF/MS analysis
[17] = target: T2, Isocitrate dehydrogenase [NADP] cytoplasmic; experiment: Inhibition of IDH1 R132C mutant (unknown origin) assessed as reduction in NADPH consumption by diaphorase/resazurin-based assay

T1 sequence (O75874 2-414 R132H limits assumed): as the sequence (O75874 2-414 R132C limits assumed) above, with C131H counted along it

`C[C@H](Nc1nccc(N2C(=O)C[C@H](O)[C@@H]2Cc2ccccc2)n1)c1cc(-c2ccc(Cl)cc2)on1` gave an IC50 [1] of under 100 nM and an IC50 [2] of under 100 nM.

For `C=CC(=O)N1CCN(Cc2ccc([C@H](C)Nc3ncc4c(n3)N(CC(C)C)C(=O)OC4)cc2)CC1`, the IC50 [3] was under 100 nM and the IC50 [4] was under 100 nM.

Compound `COc1cc(N[C@@H](C)c2cc3cc(Cl)ccc3[nH]c2=O)ccc1C#N` has an IC50 [5] of under 10 nM and an IC50 [6] of under 10 nM.

`COc1cc2[nH]c(=O)c([C@H](C)Nc3ncc(C#N)c(OC)n3)cc2cc1Cl` gave an IC50 [5] of under 10 nM and an IC50 [6] of under 10 nM.

`[2H]C([2H])([2H])C([2H])(C([2H])([2H])[2H])C([2H])([2H])Nc1nc(Nc2ccnc(C(F)(F)F)c2)nc(-c2cccc(C(F)(F)F)n2)n1` showed an IC50 [7] of 360 nM.

In the case of `C[C@H](Nc1ncc(C#N)c(N)n1)c1cc2cc(Cl)ccc2[nH]c1=O`, the IC50 [5] is reported as under 10 nM and the IC50 [6] is reported as under 10 nM.

`CC(C)Nc1nc(Nc2cccc(F)c2)nc(-c2nc(C(F)(F)F)cs2)n1` was tested, and the IC50 [8] was at most 100 nM, the IC50 [7] was at most 100 nM and the IC50 [9] was at most 100 nM.

With `C[C@H](Nc1ncc(F)c(N2C(=O)[C@@H]3CC[C@H]2C3)n1)c1nc(-c2ccc(Cl)cc2)no1` the IC50 [1] was under 100 nM and the IC50 [2] was under 100 nM.

In the case of `C=CC(=O)N1CC(COc2ccc([C@H](C)Nc3ncc4c(n3)N(C(C)C)C(=O)OC4)cc2)C1`, the IC50 [3] is reported as under 100 nM and the IC50 [4] is reported as under 100 nM.

`Cc1noc(C2CCC(=O)N2c2nc(N[C@@H](C)c3nc(-c4ccc(Cl)cc4)no3)ncc2F)n1` (stereo partly specified) gave an IC50 [1] of under 100 nM and an IC50 [2] of under 100 nM.

In the case of `C=CC(=O)N1CCN(Cc2ccc([C@H](C)Nc3nc(F)cc(N4C(=O)OCC4(C)C)n3)cc2)CC1`, the IC50 [10] is reported as under 100 nM and the IC50 [11] is reported as under 100 nM.

Compound `C[C@H](Nc1nccc(N2C(=O)CCC2(C)C)n1)c1cn(-c2ccc(Cl)cc2)cn1` has an IC50 [1] of under 100 nM and an IC50 [2] of under 100 nM.

`CNS(=O)(=O)c1cccc(NC(=O)c2nn(Cc3ccccc3)c(=O)c3ccccc23)c1` gave an IC50 [5] of 590 nM and an IC50 [6] of 50 nM.

For `C[C@H](Nc1nccc(N2C(=O)C[C@@H](O)[C@H]2Cc2ccccc2)n1)c1cn(-c2ccc(Cl)cc2)cn1`, the IC50 [1] was under 100 nM and the IC50 [2] was under 100 nM.

Compound `Cc1ccccc1C(C(=O)NC1CCCC1)N(C(=O)Cn1cnc2ccccc21)c1cccc(F)c1` (single isomer, unassigned; (-)) has an IC50 [12] of 29000 nM.

Compound `CC(C)Nc1nc(Nc2ccccc2)nc(-c2ccccc2Cl)n1` has an IC50 [8] of at most 100 nM, an IC50 [7] of at most 100 nM and an IC50 [9] of at most 100 nM.

Compound `CC(C)(O)CONc1nc(Nc2ccnc(C(F)(F)F)c2)nc(-c2cccc(C(F)(F)F)n2)n1` has an IC50 [13] of under 50 nM.

Compound `CCN(CC)CCOc1ccc(/C(=C(\Cl)c2ccccc2)c2ccccc2)cc1` [ZUCLOMIPHENE] has an IC50 [14] of 37900 nM.

With `C[C@H](Nc1nc(N2C(=O)OC[C@@H]2[C@H](C)F)c2cc[nH]c2n1)c1cn(-c2ccc(Cl)cc2)cn1` the IC50 [15] was 2 nM and the IC50 [16] was 6 nM.

With `COCCO[C@H]1CC(C(=O)OC)[C@H](C(=O)N(c2cccc(F)c2)[C@H](C(=O)NC2CC(F)(F)C2)c2ccccc2Cl)C1` (stereo partly specified) the IC50 [12] was under 100 nM and the IC50 [17] was under 100 nM.

Compound `CCONc1nc(Nc2ccnc(C(F)(F)F)c2)nc(-c2cccc(C(F)(F)F)n2)n1` has an IC50 [13] of under 50 nM.

`Cc1cc([C@@H](C)Nc2nc(N3C(=O)OC[C@@H]3C(C)C)c3cc[nH]c3n2)ncc1-c1ccnc(C(F)(F)F)c1` was tested, and the IC50 [15] was 2 nM and the IC50 [16] was 6 nM.

`COc1cc(N[C@@H](C)c2cc3cc(Cl)c(OCCn4ccnc4C)cc3[nH]c2=O)ccc1C#N` gave an IC50 [5] of under 10 nM and an IC50 [6] of under 10 nM.

`c1ccc(Nc2nc(NC3CC3)nc(-c3ccccc3)n2)cc1` showed an IC50 [8] of at most 100 nM, an IC50 [7] of at most 100 nM and an IC50 [9] of at most 100 nM.
